# Read-outs that look alike come from different tables or passages of the source.
# Tests used:
# [1] = test system: remitters with MDD at end of double-blind phase; conditions: for Relapsers (HAM-D-17 > 15) during 12-month maintenance phase: 15 mg/day 6(S)-5-MTHF as an adjuvant
# Method: During each visit, patients are administered the HAM-D-28, the CGI, the QIDS-SR, the SAFTEE-SI, the MGH-CPFQ, and the MGH-SFQ (See, e.g., Table 10 below). […] Subjects are also allowed to change their antidepressant during the course of the follow-up, if deemed appropriate. For patients who refuse the 12 months of free follow-up care, a referral to a psychiatrist is offered.
# [2] = test system: patients with major depressive disorder (MDD) resistant to treatment with SSRIs
# Method: Documentation of the presence of any side effect or adverse event is completed at every visit using the SAFTEE-SI. Subjects can contact a clinician at any time between visits concerning adverse events or worsening of symptoms. Suicidal ideation is assessed at each visit. Subjects who are felt by the study clinician to be at high risk for suicide are discontinued from the study and referred for hospitalization and further treatment if clinically indicated (See Tables 4 & 5 below).
# One-way analysis of variance can be used to assess differences in total number of SAFTEE-SI AEs between baseline and endpoint.
# The study involved the enrollment of a total of 148 patients with MDD over the course of 12 months across 10 medical centers or hospitals in the United States. […] In accordance with the sequential parallel design, the 60-day, double-blind treatment was divided into two phases of 30 days each, with assessments performed every 10 days. […] For those randomly assigned to the placebo/placebo sequence, both responders and non-responders to placebo during the first phase remained on placebo during the second phase.
# [3] = L-methylfolate 7.5 mg (n = 24) with SSRI
# [4] = L-methylfolate 7.5 mg vs placebo
# [5] = L-methylfolate 16 mg (n = 30) with SSRI
# [6] = L-methylfolate 16 mg vs placebo
smiles,measurement,setting,value
"CN1c2c(nc(N)[nH]c2=O)NC[C@@H]1CNc1ccc(C(=O)N[C@@H](CCC(=O)O)C(=O)O)cc1 [6(S)-5-MTHF, 6(S)-5-methyltetrahydrofolate]",Relapsers (HAM-D-17 > 15) during 12-month maintenance phase,[1]; Trial 1 remitters (2 entering),0
same,Relapsers (HAM-D-17 > 15) during 12-month maintenance phase,[1]; Trial 2 remitters (9 entering),0
same,relapse during 12-month maintenance phase (in words),"[1]; remitters at end of double-blind phase, adjunctive 15 mg/day",did not have a relapse
same,"Cardiovascular side effects, Frequency (%)",[2]; [3],0 (0%)
same,"Gastrointestinal side effects, Frequency (%)",[2]; [3],9 (9.8%)
same,"Infectious side effects, Frequency (%)",[2]; [3],6 (6.4%)
same,"Miscellaneous side effects, Frequency (%)",[2]; [3],1 (1.1%)
same,"Paychological [sic] side effects, Frequency (%)",[2]; [3],2 (2.1%)
same,"Sexual side effects, Frequency (%)",[2]; [3],0 (0%)
same,"Sleep side effects, Frequency (%)",[2]; [3],3 (3.2%)
same,"Somatic side effects, Frequency (%)",[2]; [3],9 (8.6%)
same,"Cardiovascular side effects, NNH",[2]; [4],< placebo
same,"Gastrointestinal side effects, NNH",[2]; [4],< placebo
same,"Infectious side effects, NNH",[2]; [4],< placebo
same,"Miscellaneous side effects, NNH",[2]; [4],< placebo
same,"Paychological [sic] side effects, NNH",[2]; [4],< placebo
same,"Sexual side effects, NNH",[2]; [4],=placebo
same,"Sleep side effects, NNH",[2]; [4],< placebo
same,"Somatic side effects, NNH",[2]; [4],< placebo
same,"Cardiovascular side effects, Frequency (%)",[2]; [5],2 (6.7%)
same,"Gastrointestinal side effects, Frequency (%)",[2]; [5],3 (10.0%)
same,"Infectious side effects, Frequency (%)",[2]; [5],2 (6.7%)
same,"Miscellaneous side effects, Frequency (%)",[2]; [5],2 (6.7%)
same,"Paychological [sic] side effects, Frequency (%)",[2]; [5],2 (6.7%)
same,"Sexual side effects, Frequency (%)",[2]; [5],0 (0%)
same,"Sleep side effects, Frequency (%)",[2]; [5],2 (6.7%)
same,"Somatic side effects, Frequency (%)",[2]; [5],3 (10.0%)
same,"Cardiovascular side effects, NNH",[2]; [6],< placebo
same,"Gastrointestinal side effects, NNH",[2]; [6],< placebo
same,"Infectious side effects, NNH",[2]; [6],< placebo
same,"Miscellaneous side effects, NNH",[2]; [6],< placebo
same,"Paychological [sic] side effects, NNH",[2]; [6],< placebo
same,"Sexual side effects, NNH",[2]; [6],=placebo
same,"Sleep side effects, NNH",[2]; [6],< placebo
same,"Somatic side effects, NNH",[2]; [6],< placebo
same,adverse side effect when administered with an SSRI (in words),[2]; Trial 1,does not appear to cause any adverse side effect

# Source: patent publication US9540691B2, “Assays and methods for selecting a treatment regimen for a subject with depression” (THE GENERAL HOSPITAL CORPORATION, priority 2011, dated 2017)
